Measured values reported in the RepoRT retention time repository.

assay: RP, Waters ACQUITY Premier BEH C18, 100 × 2.1 mm, 1.7 µm, 40 °C, 0.3 to 0.4 mL/min, estimated dead time 0.73 min; A: water + 0.1% formic acid; B: acetonitrile + 0.1% formic acid; gradient (min/%B) 0/0.5 0.1/0.5 10/80 10.1/99.5 12/0.5 12.1/0.5 14.5/0.5; conditions: stereoisomer not certain

SMILES	LC retention time [min]
OCC1OC(Oc2c[nH]c3ccccc23)C(O)C(O)C1O (stereo unspecified)	4.43
CC(=O)OC1CC2CCC1(C)C2(C)C (single isomer, unassigned; (-)) [(-)-BORNYL ACETATE]	7.47
O=C(OC1Cc2c(O)cc(O)cc2OC1c1cc(O)c(O)c(O)c1)c1cc(O)c(O)c(O)c1 (single isomer, unassigned; (-)) [(-)-EPIGALLOCATECHIN-3-GALLATE]	3.98
COc1cc(CC2COC(=O)C2Cc2ccc(O)c(OC)c2)ccc1O (single isomer, unassigned; (-)) [(-)-MATAIRESINOL]	6.12
Cn1c(=O)c2c([nH]c(=O)n2C)n(C)c1=O [1,3,7-TRIMETHYLURIC ACID]	3.23
O=C1Cc2ccccc2N1 [1,3-DIHYDRO-(2H)-INDOL-2-ONE]	5.06
Cn1c(=O)[nH]c2[nH]c(=O)n(C)c2c1=O [1,7-DIMETHYLURIC ACID]	2.39
O=C(O)c1ccc2ccccc2c1O [1-HYDROXY-2-NAPHTHOATE]	7.32
Cn1cnc2c(ncn2C2OC(CO)C(O)C2O)c1=N (stereo unspecified) [1-METHYLADENOSINE]	2.05
Cn1c(=O)[nH]c2[nH]c(=O)[nH]c2c1=O [1-METHYLURIC ACID]	1.21
Cn1c(=O)[nH]c2nc[nH]c2c1=O [1-METHYLXANTHINE]	1.42
O=C(O)c1cccc(O)c1O [2,3-DIHYDROXYBENZOATE]	4.71
O=C(O)c1c(O)cc(O)cc1O [2,4,6-TRIHYDROXYBENZOIC ACID]	3.9
O=[N+]([O-])c1ccc(O)cc1O [2,4-DIHYDROXY-NITROPHENOL]	6.02
O=C(O)c1ccc(O)cc1O [2,4-DIHYDROXYBENZOIC ACID]	4
O=c1[nH]c(=O)c2nccnc2[nH]1 [2,4-DIHYDROXYPTERIDINE]	3.08
O=C(O)c1c(O)cccc1O [2,6-DIHYDROXYBENZOIC ACID]	4.5
COc1cccc(OC)c1C(=O)O [2,6-DIMETHOXYBENZOIC ACID]	4.71
Nc1ccccc1O [2-AMINOPHENOL]	1.62
CCCCCCCCCCCCCCC(O)C(=O)O (stereo unspecified) [2-HYDROXYHEXADECANOIC ACID]	8.98

SMILES	LC retention time [min]
COc1cc2c(cc1O)CCC1C2CCC2(C)C(=O)CCC12 (stereo unspecified) [2-METHOXYESTRONE]	7.38
Cc1ccccc1C(=O)O [2-METHYLBENZOIC ACID]	5.38
O=C(O)c1ccc2ccccc2n1 [2-QUINOLINECARBOXYLATE]	4.24
O=C(O)C(O)c1ccc(O)c(O)c1 (stereo unspecified) [3,4 DIHYDROXYMANDELATE]	1.62
COc1cc(C=CC(=O)O)cc(OC)c1OC [3,4,5-TRIMETHOXYCINNAMIC ACID]	5.7
O=Cc1ccc(O)c(O)c1 [3,4-DIHYDROXYBENZALDEHYDE]	3.49
O=C(O)CCc1ccc(O)c(O)c1 [3,4-DIHYDROXYHYDROCINNAMIC ACID]	4.42
OCC(O)c1ccc(O)c(O)c1 (stereo unspecified) [3,4-DIHYDROXYPHENYLGLYCOL]	1.86
O=C(O)c1cc(O)cc(O)c1 [3,5-DIHYDROXYBENZOIC ACID]	2.21
N[C@@H](Cc1cc(I)c(Oc2ccc(O)cc2)c(I)c1)C(=O)O [3,5-DIIODO-L-THYRONINE]	5.64
Cn1c(=O)[nH]c(=O)c2c1[nH]c(=O)n2C [3,7-DIMETHYLURIC ACID]	1.28
O=C(O)CCc1ccccc1O [3-(2-HYDROXYPHENYL)PROPANOATE]	5.47
O=C([O-])C(O)Cc1ccc(O)c(O)c1.[Na+] (stereo unspecified) [3-(3,4-DIHYDROXYPHENYL)LACTIC ACID]	3.74
Nc1cc(C(=O)O)ccc1O [3-AMINO-4-HYDROXYBENZOATE]	1.37
Nc1cc(O)cc(C(=O)O)c1 [3-AMINO-5-HYDROXYBENZOATE]	1.49
Nc1c(O)cccc1C(=O)O [3-HYDROXYANTHRANILATE]	3.85
O=Cc1cccc(O)c1 [3-HYDROXYBENZALDEHYDE]	5.11
O=C(O)c1cccc(O)c1 [3-HYDROXYBENZOATE]	4.72
O=C(O)CCCc1c[nH]c2ccccc12 [3-INDOLEBUTYRIC ACID]	6.25
COc1cc(CCN)ccc1O [3-METHOXYTYRAMINE]	3.47

SMILES	LC retention time [min]
CC1C(=O)Nc2ccccc21 (stereo unspecified) [3-METHYL-2-OXINDOLE]	5.75
Cn1cnc(=N)c2[nH]cnc21 [3-METHYLADENINE]	0.904
CS(=O)CCCN=C=S (stereo unspecified) [3-METHYLSULFINYLPROPYL ISOTHIOCYANATE]	4.1
Cn1c(=O)[nH]c(=O)c2[nH]cnc21 [3-METHYLXANTHINE]	1.3
O=C(O)CC1C(=O)Nc2ccccc21 (stereo unspecified) [3-OXINDOLE-3-ACETATE]	4.29
O=C(C=Cc1ccc(O)c(O)c1)OC1CC(O)(C(=O)O)CC(O)C1OC(=O)C=Cc1ccc(O)c(O)c1 (stereo unspecified) [4,5-DI-O-CAFFEOYLQUINIC ACID]	4.78
O=C1CC(C(=O)O)NC(=O)N1 (stereo unspecified) [4,5-DIHYDROOROTIC ACID]	1.12
CC(=O)Nc1ccc(OC2OC(C(=O)O)C(O)C(O)C2O)cc1 (stereo unspecified) [4-ACETAMIDOPHENYLGLUCURONIDE]	1.32
O=Cc1ccc(O)cc1 [4-HYDROXYBENZALDEHYDE]	4.88
O=C(O)c1ccc(O)cc1 [4-HYDROXYBENZOATE]	4.37
O=C(O)C1CCC(O)CC1 (stereo unspecified) [4-HYDROXYCYCLOHEXYLCARBOXYLIC ACID]	4.05
O=C(O)Cc1cnc[nH]1 [4-IMIDAZOLEACETATE]	0.92
Cc1ccc(O)c(O)c1 [4-METHYLCATECHOL]	4.34
O=C(O)c1ccnc2ccccc12 [4-QUINOLINECARBOXYLATE]	3.01
CC1OC(n2cnc3c(N)ncnc32)C(O)C1O (stereo unspecified) [5'-DEOXYADENOSINE]	3.5
Cc1cc2nc[nH]c2cc1C [5,6 DIMETHYLBENZIMIDAZOLE]	4.48
COc1c(O)cc2oc(-c3ccc(O)cc3)cc(=O)c2c1O [5,7-DIHYDROXY-2-(4-HYDROXYPHENYL)-6-METHOXY-4H-CHROMEN-4-ONE]	6.08
O=c1cc(-c2ccccc2)oc2cc(O)cc(O)c12 [5,7-DIHYDROXYFLAVONE]	7.23
CC(=O)Nc1c(NC=O)[nH]c(=O)n(C)c1=O [5-ACETYLAMINO-6-FORMYLAMINO-3-METHYLURACIL]	1.11

The next lines start with the values.

LC retention time [min]	SMILES
4.04	CCCCCCC(N)C(=O)O (racemic) [DL-2-AMINOOCTANOIC ACID]
2.39	O=C(O)CC(CC(=O)O)C(=O)O [1,2,3-PROPANETRICARBOXYLIC ACID]
7.11	O=C(O)CCCCCCCCCCCC(=O)O [1,11-UNDECANEDICARBOXYLATE]
0.959	C[C@H](O)[C@@H](O)[C@H](O)[C@H](O)CO [1-DEOXY-D-GLUCITOL]
1.07	O=C(O)C(O)CCO (stereo unspecified) [2,4-DIHYDROXYBUTANOIC ACID]
2.81	CCCCCC(N)C(=O)O (stereo unspecified) [2-AMINOHEPTANOATE]
0.886	CC(C)(N)C(=O)O [2-AMINOISOBUTYRATE]
3.81	CCC(CO)C(=O)O (stereo unspecified) [2-ETHYLHYDRACRYLIC ACID]
4.06	CSCCC(O)C(=O)O (stereo unspecified) [2-HYDROXY-4-(METHYLTHIO)BUTANOATE]
2.82	CCC(O)C(=O)O (stereo unspecified) [2-HYDROXYBUTYRATE]
8.3	CCCCCCCCCCCCC(O)C(=O)O (stereo unspecified) [2-HYDROXYMYRISTIC ACID]
4.8	CCCCC(=O)C(=O)O [2-KETOHEXANOIC ACID]
3.44	CC(C(=O)O)C(O)(CC(=O)O)C(=O)O (stereo unspecified) [2-METHYLCITRATE]
4.07	CC(CCC(=O)O)C(=O)O (stereo unspecified) [2-METHYLGLUTARATE]
3.29	CC(=CC(=O)O)C(=O)O [2-METHYLMALEATE]
3.7	CSCCC(=O)C(=O)O [2-OXO-4-METHYLTHIOBUTANOIC ACID]

LC retention time [min]	SMILES
4.59	N[C@@H](Cc1cc(I)c(O)c(I)c1)C(=O)O [3,5-DIIODO-L-TYROSINE]
6.56	CCCc1oc(CCC(=O)O)c(C(=O)O)c1C [3-CARBOXY-4-METHYL-5-PROPYL-2-FURANPROPIONIC ACID]
4.45	CC(O)CC(=O)O (stereo unspecified) [3-HYDROXYBUTANOATE]
7.65	CCCCCCCCCC(O)CC(=O)O (stereo unspecified) [3-HYDROXYDODECANOIC ACID]
8.7	CCCCCCCCCCCCCC(O)CC(=O)O (stereo unspecified) [3-HYDROXYHEXADECANOIC ACID]
3.03	O=C(O)CNC(=O)c1cccc(O)c1 [3-HYDROXYHIPPURIC ACID]
3.54	O=C(O)Cc1cccc(O)c1 [3-HYDROXYPHENYLACETATE]
8.11	CCCCCCCCCCCC(O)CC(=O)O (stereo unspecified) [3-HYDROXYTETRADECANOIC ACID]
4.42	CCC(C)C(=O)C(=O)O (stereo unspecified) [3-METHYL-2-OXOVALERATE]
3.8	N[C@@H](Cc1ccc(O)c([N+](=O)[O-])c1)C(=O)O [3-NITRO-L-TYROSINE]
3.27	CC(=O)NCCCC(=O)O [4-ACETAMIDOBUTANOATE]
1.35	NC(N)=NCCCC(=O)O [4-GUANIDINOBUTANOATE]
4.47	Cc1cc(C(=O)O)ccc1O [4-HYDROXY-3-METHYLBENZOIC ACID]
2.42	O=C(O)CNC(=O)c1ccc(O)cc1 [4-HYDROXYHIPPURIC ACID]
5.12	CC(C(=O)O)c1ccc(O)cc1 (stereo unspecified) [4-HYDROXYPHENYL-2-PROPIONIC ACID]
3.4	Cc1ncc(CO)c(C(=O)O)c1O [4-PYRIDOXATE]
